{
  "source": "patent US6030955A",
  "about": "“Methods of affecting intracellular phosphorylation of tyrosine using phosphorothioate oligonucleotides, and antiangiogenic and antiproliferative uses thereof” (The Trustees of Columbia University in The City of New York …, priority 1996, dated 2000)",
  "tested_on": "cell surface flk-1",
  "experiment": "FACS analysis of blockade of anti-flk-1 MAb binding to C441 cells",
  "design": "species or system mouse/human",
  "conditions": "cells preincubated with 10 μg/ml heparin",
  "experimental": "For binding studies, C441 cells were removed with 2 mM EDTA in PBS, washed with cold Hanks balanced salt solution supplemented with 1% BSA (HBSS-BSA) and then resuspended in 100 μl of the same buffer at a concentration of 1 million cells per sample. Where indicated, cells were incubated with 2 μM oligodeoxynucleotides of 10 μg/ml heparin. After a 30 minute incubation on ice, cells were washed and reincubated for 30 minutes with 10 μg of the appropriate MAb. After washing, a 1:40 dilution of goat anti-mouse lgG conjugated to FITC (TAGO) was added for a final 30 minute incubation on ice. Cells were then analyzed on a Coulter Epics Elite Cytometer.",
  "data": [
    {"substance": "heparin", "values": [
      {"measurement": "binding of anti-flk-1 MAb 73 to C441 cells", "result": "inhibition"},
      {"measurement": "binding of anti-flk-1 MAb 115 to C441 cells", "result": "inhibition"}
    ]}
  ]
}
